From article PMC10085060 (Oncotarget, 2023)

Key:
[1] = Day 10 of riluzole single agent treatment (100 mg BID), advanced melanoma patients, n = 9; cited from earlier work
[2] = Drug related adverse events (CTCAE version 4.0); assay type: in vivo, human
Procedure: Safety assessments including complete blood counts, serum chemistries, liver enzymes and toxicity evaluations were completed at baseline, day 1 and 15 of cycle 1, and then day 1 of every cycle thereafter. Toxicities were evaluated and graded using the CTEP NCI Common Terminology Criteria for Adverse Events (CTCAE), version 4.0.

[3] = system: RAF1; conditions: cited from earlier work
[4] = drug related AE, Grade ≥3, n=35
[5] = drug related AE, any grade, n=35

For `Nc1nc2ccc(OC(F)(F)F)cc2s1` [riluzole], the “riluzole trough levels, geomean” value [1] is given as 78.4 ng/mL.
In the case of `CNC(=O)c1cc(Oc2ccc(NC(=O)Nc3ccc(Cl)c(C(F)(F)F)c3)cc2)ccn1` [sorafenib], the “Abdominal Pain” value [2, 4] is reported as 0, the “Alkaline Phosphatase Increase” value [2, 4] is reported as 2 and the Anemia [2, 4] is reported as 1. The Anorexia [2, 4] was 0, the Arthralgia [2, 4] was 1 and the “Cardiac troponin I increased” value [2, 4] was 1. For the same compound, the “Congestive Heart Failure” value [2, 4] was 1, the Fatigue [2, 4] was 4 and the Hypertension [2, 4] was 1. It also gave a Hypokalemia [2, 4] of 1, a Hyponatremia [2, 4] of 2 and a Hypophosphatemia [2, 4] of 4. The “Lipase Increase” value [2, 4] was 2, the “Lymphocyte Count Decrease” value [2, 4] was 6 and the “Maculopapular Rash” value [2, 4] was 4. It also gave a Myocardial infarction [2, 4] of 1, a Neutrophil count decrease [2, 4] of 0 and a Palmar-plantar erythrodysesthesia syndrome [2, 4] of 1. The Pruritus [2, 4] was 1, the “White Blood Cell Decreased” value [2, 4] was 2 and the Wound complication [2, 4] was 1. The “Abdominal Pain” value [2, 5] was 0, the “Acute Coronary Syndrome” value [2, 5] was 1 and the “Acute Kidney Injury” value [2, 5] was 0. For the same compound, the “Alanine Aminotransferase Increase” value [2, 5] was 1, the “Alkaline Phosphatase Increase” value [2, 5] was 2 and the Alopecia [2, 5] was 0. The Anemia [2, 5] was 8, the Anorexia [2, 5] was 6 and the Arthralgia [2, 5] was 1. The “Aspartate Aminotransferase Increase” value [2, 5] was 3, the Ataxia [2, 5] was 0 and the “Blood Bilirubin Increase” value [2, 5] was 2. For the same compound, the Blurred vision [2, 5] was 0, the Bullous dermatitis [2, 5] was 1 and the “Cardiac troponin I increased” value [2, 5] was 1. The “Congestive Heart Failure” value [2, 5] was 1, the Cough [2, 5] was 0 and the Depression [2, 5] was 0. The Diarrhea [2, 5] was 8, the Dizziness [2, 5] was 0 and the “Dry Mouth” value [2, 5] was 1. The Dry skin [2, 5] was 4, the Dysarthria [2, 5] was 0 and the Dysgeusia [2, 5] was 1. For the same compound, the Dyspepsia [2, 5] was 1, the Dyspnea [2, 5] was 0 and the “Edema (limbs)” value [2, 5] was 1. For the same compound, the Fatigue [2, 5] was 13, the “Fecal Incontinence” value [2, 5] was 1 and the Fever [2, 5] was 0. The Flatulence [2, 5] was 0, the “Gastrointestinal Fistula” value [2, 5] was 1 and the Gastroparesis [2, 5] was 0. For the same compound, the Headache [2, 5] was 0, the Hoarseness [2, 5] was 0 and the Hypercalcemia [2, 5] was 1. The Hyperglycemia [2, 5] was 4, the Hyperkalemia [2, 5] was 3 and the Hypertension [2, 5] was 6. The Hypoalbuminemia [2, 5] was 3, the Hypocalcemia [2, 5] was 2 and the Hypokalemia [2, 5] was 1. It also gave a Hypomagnesemia [2, 5] of 2, a Hyponatremia [2, 5] of 7 and a Hypophosphatemia [2, 5] of 11. The Hypotension [2, 5] was 1, the Hypothyroidism [2, 5] was 1 and the “Increased blood urea nitrogen” value [2, 5] was 1. For the same compound, the Insomnia [2, 5] was 0, the “Lipase Increase” value [2, 5] was 5 and the “Lymphocyte Count Decrease” value [2, 5] was 10. For the same compound, the “Maculopapular Rash” value [2, 5] was 11, the Mucosal infection [2, 5] was 1 and the Mucositis oral [2, 5] was 5. The Muscle weakness [2, 5] was 1, the Myalgia [2, 5] was 0 and the Myocardial infarction [2, 5] was 1. The Nausea [2, 5] was 2, the Neutrophil count decrease [2, 5] was 0 and the Oral pain [2, 5] was 1. For the same compound, the Palmar-plantar erythrodysesthesia syndrome [2, 5] was 11, the “Peripheral Sense Neuropathy” value [2, 5] was 1 and the “Platelet Count Decrease” value [2, 5] was 3. The Pruritus [2, 5] was 4, the Serum amylase increased [2, 5] was 3 and the “Urinary Tract Infection” value [2, 5] was 1. For the same compound, the “Voice Alteration” value [2, 5] was […], the Vomiting [2, 5] was 1 and the “Weight Loss” value [2, 5] was 2. For the same compound, the “White Blood Cell Decreased” value [2, 5] was 2, the Would dehiscence [2, 5] was 1 and the Wound complication [2, 5] was 1. The “patients with toxicities attributed to the drug (alone), number” value ([2]; of 35 patients) was 28, the “patients with toxicities attributed to the drug by the treating investigator” value ([2]; of 35 patients) was 80% and the IC50 [3] was […].
